One data set concerns the target T1, GR (Homo sapiens, UniProt P04150).
T1 construct: expressed in transfected cells; host or cells: CHO-K1
T1 sequence (P04150 1-777): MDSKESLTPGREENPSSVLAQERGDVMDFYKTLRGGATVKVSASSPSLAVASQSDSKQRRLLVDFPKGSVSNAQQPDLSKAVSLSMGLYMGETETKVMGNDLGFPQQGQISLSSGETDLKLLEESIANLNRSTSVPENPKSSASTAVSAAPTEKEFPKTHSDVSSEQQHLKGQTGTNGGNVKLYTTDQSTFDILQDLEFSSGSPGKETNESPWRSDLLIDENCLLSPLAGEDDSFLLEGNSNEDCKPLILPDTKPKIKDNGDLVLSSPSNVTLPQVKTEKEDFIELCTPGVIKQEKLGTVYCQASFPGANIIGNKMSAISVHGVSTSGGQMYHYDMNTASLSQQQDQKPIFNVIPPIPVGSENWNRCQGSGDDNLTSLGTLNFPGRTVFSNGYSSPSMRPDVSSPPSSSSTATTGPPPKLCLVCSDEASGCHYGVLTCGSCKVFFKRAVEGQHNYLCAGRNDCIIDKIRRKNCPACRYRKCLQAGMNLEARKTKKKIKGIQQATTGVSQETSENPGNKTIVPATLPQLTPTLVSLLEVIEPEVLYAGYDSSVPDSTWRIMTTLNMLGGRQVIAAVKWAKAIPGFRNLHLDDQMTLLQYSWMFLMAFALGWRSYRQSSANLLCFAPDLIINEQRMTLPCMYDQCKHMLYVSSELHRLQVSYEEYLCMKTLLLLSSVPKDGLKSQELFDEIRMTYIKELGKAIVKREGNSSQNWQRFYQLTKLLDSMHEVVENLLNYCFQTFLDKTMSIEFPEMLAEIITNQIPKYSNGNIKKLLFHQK
Kind of data set: In Vitro GR Luciferase Reporter Assay (antagonist mode, CHO-K1-GR-MMTV-Luc reporter cells). The data set is classed as cell-based. To be noted: antagonist mode, 10 nM Dexamethasone. The method, boiled down:
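CHO-K1-GR-MMTV-Luc cells in phenol red-free DMEM with 10% CSS, stimulated with 10 nM dexamethasone (final) and treated with 8-point 1:5 compound dilutions for about 18-24 h at 37° C. Luciferase measured by OneGlo luminescence; IC50 derived for inhibition of GR activity.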
Background: A reporter such as luciferase makes a cellular process visible.

A further data set concerns the target T2, CYP2C8 (Homo sapiens, UniProt P10632).
T2 construct: Pooled human microsomes were obtained from Sekisui XenoTech, KS; tissue Sekisui XenoTech, KS; host or cells: pooled human liver microsomes
T2 sequence (P10632 1-490): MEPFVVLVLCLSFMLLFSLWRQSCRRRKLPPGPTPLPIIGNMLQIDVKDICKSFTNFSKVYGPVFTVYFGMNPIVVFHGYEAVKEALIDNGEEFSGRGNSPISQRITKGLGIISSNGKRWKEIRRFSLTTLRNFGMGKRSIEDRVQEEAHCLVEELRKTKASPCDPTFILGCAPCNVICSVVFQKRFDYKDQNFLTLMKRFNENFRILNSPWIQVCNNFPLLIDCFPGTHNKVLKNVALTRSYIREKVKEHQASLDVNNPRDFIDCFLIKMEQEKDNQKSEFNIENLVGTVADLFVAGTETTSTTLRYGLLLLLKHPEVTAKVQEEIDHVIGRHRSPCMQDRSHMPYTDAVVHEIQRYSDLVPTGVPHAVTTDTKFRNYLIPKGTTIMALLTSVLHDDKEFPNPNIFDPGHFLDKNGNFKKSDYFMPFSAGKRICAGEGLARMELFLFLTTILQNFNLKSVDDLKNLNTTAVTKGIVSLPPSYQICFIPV
Put plainly: CYP Inhibition Assay (CYP2C8, human liver microsomes, paclitaxel substrate). To be noted: pH 7.4; pooled human liver microsomes 0.1 mg/mL, probe substrate paclitaxel. The data set is classed as in vitro ADME. In short, it runs like this:
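Pooled human liver microsomes (0.1 mg/mL) in 50 mM potassium phosphate pH 7.4 with compound, started with 1 mM NADPH, 5 min at 37° C, duplicate.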

Some results are limits rather than exact numbers.

The compound `Cn1cnc(S(=O)(=O)N(C2CC(F)(F)C2)[C@H]2CCC3=Cc4c(cnn4-c4ccc(F)cc4)C[C@]3(C(=O)c3cc(Cl)ccn3)C2)n1` [Example 355, N-((4aS,6S)-4a-(4-chloropicolinoyl)-1-(4-fluorophenyl)-4,4a,5,6,7,8-hexahydro-1H-benzo[f]indazol-6-yl)-N-(3,3-difluorocyclobutyl)-1-methyl-1H-1,2,4-triazole-3-sulfonamide] displayed an IC50 against GR of at most 100 nM. The compound further returned an inhibition at 5 min against CYP2C8 of at most 25%.

The compound `CCN([C@H]1CCC2=Cc3c(cnn3-c3ccc(F)cc3)C[C@]2(C(=O)c2ncc(C(F)(F)F)s2)C1)S(=O)(=O)c1ncn(C)n1` [Example 356, N-ethyl-N-((4aS,6S)-1-(4-fluorophenyl)-4a-(5-(trifluoromethyl)thiazole-2-carbonyl)-4,4a,5,6,7,8-hexahydro-1H-benzo[f]indazol-6-yl)-1-methyl-1H-1,2,4-triazole-3-sulfonamide] displayed an IC50 against GR of at most 100 nM. Also, the inhibition at 5 min against CYP2C8 fell in the range of 25 to 50%.

As for `CCN([C@H]1CCC2=Cc3c(cnn3-c3ccc(F)cc3)C[C@]2(C(=O)c2cc(C(F)(F)F)ccn2)C1)S(=O)(=O)c1ncn(C)n1` [Example 357, N-ethyl-N-((4aS,6S)-1-(4-fluorophenyl)-4a-(4-(trifluoromethyl)picolinoyl)-4,4a,5,6,7,8-hexahydro-1H-benzo[f]indazol-6-yl)-1-methyl-1H-1,2,4-triazole-3-sulfonamide], the IC50 against GR was at most 100 nM. The compound also came in with an inhibition at 5 min on CYP2C8 of at most 25%.

For `CCN([C@H]1CCC2=Cc3c(cnn3-c3ccc(F)cc3)C[C@]2(C(=O)c2cc(F)ccn2)C1)S(=O)(=O)c1ncn(C)n1` [Example 358, N-ethyl-N-((4aS,6S)-1-(4-fluorophenyl)-4a-(4-fluoropicolinoyl)-4,4a,5,6,7,8-hexahydro-1H-benzo[f]indazol-6-yl)-1-methyl-1H-1,2,4-triazole-3-sulfonamide], the IC50 against GR was at most 100 nM. Also, on CYP2C8, the inhibition at 5 min fell in the range of 25 to 50%.

At GR, `CCN([C@H]1CCC2=Cc3c(cnn3-c3ccc(F)cc3)C[C@]2(C(=O)c2cc(Cl)ccn2)C1)S(=O)(=O)c1ncn(C)n1` [Example 359, N-((4aS,6S)-4a-(4-chloropicolinoyl)-1-(4-fluorophenyl)-4,4a,5,6,7,8-hexahydro-1H-benzo[f]indazol-6-yl)-N-ethyl-1-methyl-1H-1,2,4-triazole-3-sulfonamide] returned a concentration for half-maximal inhibition (IC50) of at most 100 nM. Besides, the inhibition at 5 min against CYP2C8 lay in the range of 25 to 50%.

The compound `Cn1cnc(S(=O)(=O)N(C2CC2)[C@H]2CCC3=Cc4c(cnn4-c4ccc(F)cc4)C[C@]3(C(=O)c3cc(Cl)ccn3)C2)c1` [Example 363, N-((4aS,6S)-4a-(4-chloropicolinoyl)-1-(4-fluorophenyl)-4,4a,5,6,7,8-hexahydro-1H-benzo[f]indazol-6-yl)-N-cyclopropyl-1-methyl-1H-imidazole-4-sulfonamide] registered a 50% inhibitory concentration (IC50) against GR of at most 100 nM. Besides, the inhibition at 5 min against CYP2C8 fell in the range of 25 to 50%.

`Cn1ccc(S(=O)(=O)N([C@H]2CCC3=Cc4c(cnn4-c4ccc(F)cc4)C[C@]3(C(=O)c3ncc(C(F)(F)F)s3)C2)[C@H]2C[C@](O)(C(F)(F)F)C2)n1` [Example 366, N-((4aS,6S)-1-(4-fluorophenyl)-4a-(5-(trifluoromethyl)thiazole-2-carbonyl)-4,4a,5,6,7,8-hexahydro-1H-benzo[f]indazol-6-yl)-N-((1s,3R)-3-hydroxy-3-(trifluoromethyl)cyclobutyl)-1-methyl-1H-pyrazole-3-sulfonamide]: the IC50 against GR is at most 100 nM. Moreover, the inhibition at 5 min on CYP2C8 is at most 25%.

In the case of `Cn1cnc(S(=O)(=O)N(CC(F)(F)F)[C@H]2CCC3=Cc4c(cnn4-c4ccc(F)cc4)C[C@]3(C(=O)c3ncc(C(F)(F)F)s3)C2)n1` [Example 367, N-((4aS,6S)-1-(4-fluorophenyl)-4a-(5-(trifluoromethyl)thiazole-2-carbonyl)-4,4a,5,6,7,8-hexahydro-1H-benzo[f]indazol-6-yl)-1-methyl-N-(2,2,2-trifluoroethyl)-1H-1,2,4-triazole-3-sulfonamide], the IC50 against GR is at most 100 nM. Further, the inhibition at 5 min against CYP2C8 fell in the range of 25 to 50%.

Regarding `Cn1ccc(S(=O)(=O)N([C@H]2CCC3=Cc4c(cnn4-c4ccc(F)cc4)C[C@]3(C(=O)c3ncc(C(F)(F)F)s3)C2)[C@H]2C[C@@](O)(C(F)(F)F)C2)n1` [Example 368, N-((4aS,6S)-1-(4-fluorophenyl)-4a-(5-(trifluoromethyl)thiazole-2-carbonyl)-4,4a,5,6,7,8-hexahydro-1H-benzo[f]indazol-6-yl)-N-((1r,3S)-3-hydroxy-3-(trifluoromethyl)cyclobutyl)-1-methyl-1H-pyrazole-3-sulfonamide], the IC50 on GR was at most 100 nM. This compound also displayed an inhibition at 5 min against CYP2C8 of 25 to 50%.

`CO[C@]1(C)C[C@H](N([C@H]2CCC3=Cc4c(cnn4-c4ccc(F)cc4)C[C@]3(C(=O)c3cc(F)ccn3)C2)S(=O)(=O)c2ccn(C)n2)C1` [Example 371, N-((4aS,6S)-1-(4-fluorophenyl)-4a-(4-fluoropicolinoyl)-4,4a,5,6,7,8-hexahydro-1H-benzo[f]indazol-6-yl)-N-((1s,3R)-3-methoxy-3-methylcyclobutyl)-1-methyl-1H-pyrazole-3-sulfonamide]: the IC50 on GR is at most 100 nM. Moreover, the inhibition at 5 min on CYP2C8 was in the range of 25 to 50%.

As to `Cn1cc(S(=O)(=O)N(CC(F)F)[C@H]2CCC3=Cc4c(cnn4-c4ccc(F)cc4)C[C@]3(C(=O)c3cc(F)ccn3)C2)nn1` [Example 373, N-(2,2-difluoroethyl)-N-((4aS,6S)-1-(4-fluorophenyl)-4a-(4-fluoropicolinoyl)-4,4a,5,6,7,8-hexahydro-1H-benzo[f]indazol-6-yl)-1-methyl-1H-1,2,3-triazole-4-sulfonamide], the IC50 against GR was at most 100 nM. For the same compound, the inhibition at 5 min against CYP2C8 fell in the range of 50 to 75%.

`Cn1cnc(S(=O)(=O)[C@H]2CCC3=Cc4c(cnn4-c4ccc(F)cc4)C[C@]3(C(=O)c3ccc(C(F)(F)F)cn3)C2)n1` [Example 374, ((4aS,6S)-1-(4-fluorophenyl)-6-((1-methyl-1H-1,2,4-triazol-3-yl)sulfonyl)-1,4,5,6,7,8-hexahydro-4aH-benzo[f]indazol-4a-yl)(5-(trifluoromethyl)pyridin-2-yl)methanone] showed an IC50 against GR of at most 100 nM. At CYP2C8, the inhibition at 5 min was at most 25%.

On GR, `Cn1cnc(S(=O)(=O)CC2CCC3=Cc4c(cnn4-c4ccc(F)cc4)C[C@]3(C(=O)c3cc(C(F)(F)F)ccn3)C2)n1` (stereo partly drawn) [Example 377, ((4aR)-1-(4-fluorophenyl)-6-(((1-methyl-1H-1,2,4-triazol-3-yl)sulfonyl)methyl)-1,4,5,6,7,8-hexahydro-4aH-benzo[f]indazol-4a-yl)(4-(trifluoromethyl)pyridin-2-yl)methanone] had an IC50 of at most 100 nM. The inhibition at 5 min against CYP2C8 lay within 25 to 50%.

As a reminder, the IC50 is the concentration that inhibits the measured activity by half. By inhibition is commonly meant the relative decrease from the control value, in per cent. Low values mean a response near the control, high ones a response far below the control.

These data come from US20210122730A1, “GLUCOCORTICOID RECEPTOR MODULATORS” (ORIC Pharmaceuticals, Inc., priority 2017, published 2021).
